A melting point compilation (Tetko et al.; mined from patent text by program, amines drawn as free bases though some values may be those of a salt)

First: Cc1cc(C(C)(C)c2ccc(O)cc2)ccc1O
Second: CCC(C)COc1ccc(-c2ccc(O)cc2)cc1C#N (stereo unspecified)
The melting point of the first is lower: 112 to 113 °C for the first, 181 °C for the second.

First: N#Cc1cc(N)ccc1N1CCCCC1
Second: CC(=O)c1nn2c3c(cccc13)CCC2
The melting point of the first is higher: 148 to 149 °C for the first, 62 to 64 °C for the second.

First: CCOc1ccc([N+](=O)[O-])cc1I
Second: CCOC(=O)CC(=O)c1cc(OC)c(OC)c([N+](=O)[O-])c1
The melting point of the first is higher: 81 to 83 °C for the first, 67 to 68 °C for the second.

Compared with `CCCSc1ccc2c3c(cccc13)C(=O)N2`, `Nc1ccnc(CSCCN2C(=O)c3ccccc3C2=O)n1` is lower in melting point: 145 to 148 °C for the first, 131 to 133 °C for the second.

First: CCOc1ccc2ccccc2c1C(=O)N1CCC(NS(=O)(=O)c2cc(S(=O)(=O)c3ccccc3)ccc2C(C)C)CC1
Second: COc1ccccc1OC1CCN(CCCNC(=O)c2cccc3c(=O)c(C)c(-c4ccccc4)oc23)CC1
The melting point of the first is higher: 164 to 166 °C for the first, 154 to 156 °C for the second.

First: CC1(C)N(CC(N)=O)C(=O)CN1C(=O)CCl
Second: O=C(O)Cn1c(=O)c2cc(Cl)ccc2n(Cc2ccc(Br)cc2F)c1=O
The melting point of the first is higher: 214 to 216 °C for the first, 189 °C for the second.

Compared with `CC(C)(C)c1cc2c(=O)[nH]cnc2o1`, `CC(C)(C)ONC(=O)Oc1ccccc1` is lower in melting point: 198 to 200 °C for the first, 124 to 126 °C for the second.

Compared with `Cc1cccc(NC(=O)NCC(=O)N(CC(=O)N2CCCc3ccccc32)c2ccccc2)c1`, `Cc1ccc(C(=O)c2c(OCc3ccccc3)cc(C(=O)O)cc2[N+](=O)[O-])cc1` is higher in melting point: 167 °C for the first, 222 to 223 °C for the second.

First: COc1ccc(CC(O)C(=O)c2ccccc2)cc1 (stereo unspecified)
Second: CCOC(=O)CCCCc1ccc(OCc2nc(-c3ccccc3)oc2C)cc1
The melting point of the first is higher: 100 °C for the first, 57 to 58 °C for the second.

Compared with `CCOC(=O)c1c(C(F)(F)F)nc(OCC)c(C(=O)OC)c1OCC`, `COC(=O)c1nc(-c2ccc(Cl)c(OC)c2F)nc(O)c1Br` is higher in melting point: 46 to 48 °C for the first, 192 to 195 °C for the second.

First: Cc1nn(C)c(C)c1C(=O)Nc1cccc2c1CCC2(C)C
Second: Cc1nc2c3c(ccc2n1C)CCC(c1ccccc1)O3 (stereo unspecified)
The melting point of the first is lower: 152 °C for the first, 161 to 164 °C for the second.

First: CCCCCCCCCCCCCCCCCC(=O)OC(CO)CO
Second: CCCc1cc(CCCCC(=O)O)ccc1OC
The melting point of the first is lower: 73 to 75 °C for the first, 84 °C for the second.

First: C=CC(=N)NS(N)(=O)=O
Second: NS(=O)(=O)c1ccccc1CCCl
The melting point of the first is lower: 72 to 75 °C for the first, 168 to 171 °C for the second.

First: O=C(Cc1ccccc1)NCC(O)c1ccccc1 (stereo unspecified)
Second: O=C(O)c1cc(NC(=O)C(CS)Cc2ccccc2)c[nH]1 (stereo unspecified)
The melting point of the first is lower: 97 to 99 °C for the first, 169 to 172 °C for the second.

Compared with `CCC1C(C)=NN=C(c2ccccc2F)c2cc(OC)c(OC)cc21` (stereo unspecified), `CCCCc1nc(Cl)c(CO)n1Cc1ccc(-c2ccccc2-c2nc(=O)o[nH]2)cc1` is higher in melting point: 86 to 88 °C for the first, 202 to 205 °C for the second.

First: Cc1cccc2c1nc(COc1ccc(Cl)cc1)n2CCC(Cc1ccccc1)C(=O)N1CCCCC1 (stereo unspecified)
Second: CCCCCCOc1ccc(NC(=O)N(C)c2cccc(-c3ccc(CC4SC(=O)NC4=O)cc3)c2)cc1 (stereo unspecified)
The melting point of the first is lower: 93.5 to 95 °C for the first, 146 to 148 °C for the second.

Compared with `CC(=O)c1ccc(Nc2cccc(-c3cncnc3)c2)c([N+](=O)[O-])c1`, `Cc1onc(-c2ccco2)c1-c1ccccc1` is lower in melting point: 131 to 132 °C for the first, 93 to 96 °C for the second.

First: C=CCN1CCC23CC(=O)CCC2C1Cc1cccc(OC)c13 (stereo unspecified)
Second: C=CS(=O)(=O)c1ccc(/C(=C\C2CCCCC2)C(=O)OC)cc1Cl
The melting point of the first is lower: 84 to 86 °C for the first, 105 to 108 °C for the second.

Compared with `COc1ccccc1NC(=O)Nc1nc(Nc2ccccc2-c2ccccc2)nc(N(CCC(=O)O)Cc2cccs2)n1`, `O=C(O)COc1ccc2c(=O)c3c(oc2c1)C(=Cc1ccccc1)CC3` is higher in melting point: 115 to 120 °C for the first, 277 to 279 °C for the second.

Compared with `CC1(C)OC(=O)Nc2ccc(-c3cc(Br)cc(OC(F)(F)F)c3)cc21`, `CCCN(CCC)C1CCc2ccc(NC(=O)C=NO)cc2C1` (stereo unspecified) is lower in melting point: 214 to 216 °C for the first, 82 to 85 °C for the second.

`CC(=CC(=O)c1cccnc1)NCC(O)COc1ccc(NC(=O)NC2CCCCC2)cc1` (stereo unspecified) showed a melting point of 168 °C.
